Legend:
[1] = target: T1, JNK1 (Homo sapiens, UniProt P45983); test: Kinase HotSpot assay, JNK1; assay type: biochemical
T1 construct: purchased Reaction Biology Corp

[2] = test system: caspase-3; test: Western blot of amyloid-β-induced caspase-3 activation (cleavage) in neurons; assay type: cell-based, rat; conditions: pre-treated 90 minutes, 10 μM amyloid-β1-42 24 hours
Text: (§1) To establish whether the derived selective JNK3 inhibitor actually has the ability to protect neurons from amyloid β-induced neuronal cell death, which is known as the pathogenesis of Alzheimer’s disease, we performed cytotoxicity experiments using Aβ 42, which is known as the most toxic fragment of the amyloid protein. The amyloid-β is known to mainly cause apoptosis during cell death, so it was confirmed whether the derived selective JNK3 inhibitors affect the activation (cleavage) of caspase-3, which are apoptosis-related signaling substances. […] This means that selective JNK3 inhibitors can inhibit apoptosis signaling by amyloid-β in neurons, thereby inhibiting apoptosis. Additionally, we confirmed that JNK activation was induced by amyloid-β in neurons, and the derived selective JNK3 inhibitors could inhibit JNK activation induced by amyloid-β. […] Then, the experiments for JNK3 inhibitors’ effect on the viability of neurons were conducted for five 6-dihydroxy benzimidazoles (35a-35e) by comparing it with previously published resveratrol as a positive control. On the 5th day of rat primary cortical neuron differentiation, each compound was pre-treated for 90 min and then treated with 10 μM Aβ 42 (HIFP-treated) for 24 or 48 h, and cell viability was measured by MTT assay. […]

[3] = test system: c-jun; test: Amyloid-β-induced JNK activation (c-jun phosphorylation) in neurons; assay type: cell-based; conditions: rat primary cortical neurons
Text: as §1

[4] = test system: over 38 kinases; test: Kinase panel screening, single dose 1 μM, whole panel; assay type: biochemical; conditions: duplicate
[5] = target: T2, ABL1 (Homo sapiens, UniProt P00519); test: Kinase panel screening 1 μM; assay type: biochemical; conditions: read-out: enzymatic inhibition ABL1
T2 construct: purchased Reaction Biology Corp. (Kinase HotSpot)

[6] = target: T3, AKT1 (Homo sapiens, UniProt P31749); test: Kinase panel screening 1 μM; assay type: biochemical; conditions: read-out: enzymatic inhibition AKT1
T3 construct: purchased Reaction Biology Corp. (Kinase HotSpot)

[7] = target: T4, Aurora A (Homo sapiens, UniProt O14965); test: Kinase panel screening 1 μM; assay type: biochemical; conditions: read-out: enzymatic inhibition Aurora A
T4 construct: purchased Reaction Biology Corp. (Kinase HotSpot)

[8] = target: T5, BRAF (V599E) (Homo sapiens, UniProt P15056, V600E); test: Kinase panel screening 1 μM; assay type: biochemical; conditions: read-out: enzymatic inhibition BRAF (V599E)
T5 construct: purchased Reaction Biology Corp. (Kinase HotSpot)

[9] = target: T6, c-Kit (Homo sapiens, UniProt P10721); test: Kinase panel screening 1 μM; assay type: biochemical; conditions: read-out: enzymatic inhibition c-Kit
T6 construct: purchased Reaction Biology Corp. (Kinase HotSpot)

[10] = target: T7, c-MER (Homo sapiens, UniProt Q12866); test: Kinase panel screening 1 μM; assay type: biochemical; conditions: read-out: enzymatic inhibition c-MER
T7 construct: purchased Reaction Biology Corp. (Kinase HotSpot)

[11] = target: T8, c-MET (Homo sapiens, UniProt P08581); test: Kinase panel screening 1 μM; assay type: biochemical; conditions: read-out: enzymatic inhibition c-MET
T8 construct: purchased Reaction Biology Corp. (Kinase HotSpot)

[12] = target: T9, c-Src (Homo sapiens, UniProt P12931); test: Kinase panel screening 1 μM; assay type: biochemical; conditions: read-out: enzymatic inhibition c-Src
T9 construct: purchased Reaction Biology Corp. (Kinase HotSpot)

[13] = target: T10, CAMKK1 (Homo sapiens, UniProt Q8N5S9); test: Kinase panel screening 1 μM; assay type: biochemical; conditions: read-out: enzymatic inhibition CAMKK1
T10 construct: purchased Reaction Biology Corp. (Kinase HotSpot)

[14] = target: T11, ERK1 (Homo sapiens, UniProt P27361); test: Kinase panel screening 1 μM; assay type: biochemical; conditions: read-out: enzymatic inhibition ERK1
T11 construct: purchased Reaction Biology Corp. (Kinase HotSpot)

[15] = target: T12, FGFR3 (Homo sapiens, UniProt P22607); test: Kinase panel screening 1 μM; assay type: biochemical; conditions: read-out: enzymatic inhibition FGFR3
T12 construct: purchased Reaction Biology Corp. (Kinase HotSpot)

[16] = target: T13, FMS (Homo sapiens, UniProt P07333); test: Kinase panel screening 1 μM; assay type: biochemical; conditions: read-out: enzymatic inhibition FMS
T13 construct: purchased Reaction Biology Corp. (Kinase HotSpot)

[17] = target: T14, FYN (Homo sapiens, UniProt P06241); test: Kinase panel screening 1 μM; assay type: biochemical; conditions: read-out: enzymatic inhibition FYN
T14 construct: purchased Reaction Biology Corp. (Kinase HotSpot)

[18] = target: T15, IGF1R (Homo sapiens, UniProt P08069); test: Kinase panel screening 1 μM; assay type: biochemical; conditions: read-out: enzymatic inhibition IGF1R
T15 construct: purchased Reaction Biology Corp. (Kinase HotSpot)

[19] = target: T16, JAK3 (Homo sapiens, UniProt P52333); test: Kinase panel screening 1 μM; assay type: biochemical; conditions: read-out: enzymatic inhibition JAK3
T16 construct: purchased Reaction Biology Corp. (Kinase HotSpot)

[20] = target: T17, LCK (Homo sapiens, UniProt P06239); test: Kinase panel screening 1 μM; assay type: biochemical; conditions: read-out: enzymatic inhibition LCK
T17 construct: purchased Reaction Biology Corp. (Kinase HotSpot)

[21] = target: T18, MEK1 (Homo sapiens, UniProt Q02750); test: Kinase panel screening 1 μM; assay type: biochemical; conditions: read-out: enzymatic inhibition MEK1
T18 construct: purchased Reaction Biology Corp. (Kinase HotSpot)

[22] = target: T19, RON/MST1R (Homo sapiens, UniProt Q04912); test: Kinase panel screening 1 μM; assay type: biochemical; conditions: read-out: enzymatic inhibition RON/MST1R
T19 construct: purchased Reaction Biology Corp. (Kinase HotSpot)

[23] = target: T20, ROS/ROS1 (Homo sapiens, UniProt P08922); test: Kinase panel screening 1 μM; assay type: biochemical; conditions: read-out: enzymatic inhibition ROS/ROS1
T20 construct: purchased Reaction Biology Corp. (Kinase HotSpot)

[24] = target: T21, TYRO3/SKY (Homo sapiens, UniProt Q06418); test: Kinase panel screening 1 μM; assay type: biochemical; conditions: read-out: enzymatic inhibition TYRO3/SKY
T21 construct: purchased Reaction Biology Corp. (Kinase HotSpot)

T1 sequence (P45983 whole entry): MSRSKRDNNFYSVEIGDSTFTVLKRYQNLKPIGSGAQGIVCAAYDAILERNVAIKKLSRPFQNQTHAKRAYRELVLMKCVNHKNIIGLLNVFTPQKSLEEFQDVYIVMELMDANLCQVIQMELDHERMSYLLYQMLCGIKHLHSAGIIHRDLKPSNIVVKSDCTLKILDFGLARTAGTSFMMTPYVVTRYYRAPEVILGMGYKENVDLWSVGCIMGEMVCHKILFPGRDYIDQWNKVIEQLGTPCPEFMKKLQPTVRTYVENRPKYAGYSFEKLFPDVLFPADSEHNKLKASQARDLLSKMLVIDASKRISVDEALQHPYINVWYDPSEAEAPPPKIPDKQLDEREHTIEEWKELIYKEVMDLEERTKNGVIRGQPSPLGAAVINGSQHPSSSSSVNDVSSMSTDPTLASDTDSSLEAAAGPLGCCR
T7 sequence (Q12866 21-999): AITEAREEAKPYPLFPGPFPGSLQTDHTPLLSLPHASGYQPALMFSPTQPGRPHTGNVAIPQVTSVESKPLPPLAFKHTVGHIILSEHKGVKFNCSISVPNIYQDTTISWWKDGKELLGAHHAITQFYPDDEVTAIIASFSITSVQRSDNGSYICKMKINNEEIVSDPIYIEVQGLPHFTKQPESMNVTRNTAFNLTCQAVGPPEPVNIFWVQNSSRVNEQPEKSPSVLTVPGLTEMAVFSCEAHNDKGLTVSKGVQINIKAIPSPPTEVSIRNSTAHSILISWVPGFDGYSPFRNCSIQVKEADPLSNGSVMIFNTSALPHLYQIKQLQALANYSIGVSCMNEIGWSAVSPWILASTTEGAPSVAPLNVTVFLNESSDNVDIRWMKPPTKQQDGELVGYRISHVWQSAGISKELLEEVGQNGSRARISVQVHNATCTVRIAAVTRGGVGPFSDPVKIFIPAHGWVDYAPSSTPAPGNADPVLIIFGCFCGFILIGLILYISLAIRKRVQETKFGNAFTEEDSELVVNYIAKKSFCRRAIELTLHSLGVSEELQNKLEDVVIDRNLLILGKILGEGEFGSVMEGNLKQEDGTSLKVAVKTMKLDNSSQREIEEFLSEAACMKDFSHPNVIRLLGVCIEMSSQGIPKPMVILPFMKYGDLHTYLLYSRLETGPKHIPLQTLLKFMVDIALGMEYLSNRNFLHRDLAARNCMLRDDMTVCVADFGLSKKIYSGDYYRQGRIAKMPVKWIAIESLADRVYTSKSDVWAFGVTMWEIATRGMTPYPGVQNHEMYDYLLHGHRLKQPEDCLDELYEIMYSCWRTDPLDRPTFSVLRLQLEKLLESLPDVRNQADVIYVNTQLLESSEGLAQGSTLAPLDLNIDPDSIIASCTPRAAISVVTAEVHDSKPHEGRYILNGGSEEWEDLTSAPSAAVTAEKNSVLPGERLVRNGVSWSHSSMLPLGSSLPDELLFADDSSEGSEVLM
T2 sequence (P00519 whole entry): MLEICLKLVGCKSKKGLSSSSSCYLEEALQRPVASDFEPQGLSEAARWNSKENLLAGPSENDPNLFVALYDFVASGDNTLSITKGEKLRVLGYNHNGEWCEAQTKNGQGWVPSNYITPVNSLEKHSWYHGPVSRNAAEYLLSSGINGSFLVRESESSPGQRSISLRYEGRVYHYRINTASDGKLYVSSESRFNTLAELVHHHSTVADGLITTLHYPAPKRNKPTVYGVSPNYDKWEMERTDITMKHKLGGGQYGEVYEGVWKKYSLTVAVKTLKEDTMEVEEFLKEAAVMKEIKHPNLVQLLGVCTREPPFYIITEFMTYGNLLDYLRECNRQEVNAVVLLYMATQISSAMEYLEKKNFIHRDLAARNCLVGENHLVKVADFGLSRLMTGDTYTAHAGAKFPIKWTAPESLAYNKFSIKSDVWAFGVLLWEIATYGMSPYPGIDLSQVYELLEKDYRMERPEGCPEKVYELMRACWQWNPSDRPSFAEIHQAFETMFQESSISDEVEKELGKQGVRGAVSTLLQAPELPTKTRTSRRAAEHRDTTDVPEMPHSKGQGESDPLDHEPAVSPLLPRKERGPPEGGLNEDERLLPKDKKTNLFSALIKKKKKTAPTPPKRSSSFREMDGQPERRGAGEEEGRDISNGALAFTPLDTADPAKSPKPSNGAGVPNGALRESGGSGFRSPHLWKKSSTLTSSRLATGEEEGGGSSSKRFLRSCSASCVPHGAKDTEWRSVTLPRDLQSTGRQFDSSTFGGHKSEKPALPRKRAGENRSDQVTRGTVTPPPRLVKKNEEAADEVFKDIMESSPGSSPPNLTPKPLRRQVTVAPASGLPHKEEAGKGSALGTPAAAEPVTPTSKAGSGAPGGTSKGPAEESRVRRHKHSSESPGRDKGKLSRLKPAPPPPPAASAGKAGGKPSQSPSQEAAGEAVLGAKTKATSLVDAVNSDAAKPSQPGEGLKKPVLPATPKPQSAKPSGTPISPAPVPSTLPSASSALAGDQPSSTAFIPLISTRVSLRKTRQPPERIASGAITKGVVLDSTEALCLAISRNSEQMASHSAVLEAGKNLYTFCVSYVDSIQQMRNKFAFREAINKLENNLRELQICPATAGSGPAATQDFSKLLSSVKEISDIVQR
T19 sequence (Q04912 25-1400): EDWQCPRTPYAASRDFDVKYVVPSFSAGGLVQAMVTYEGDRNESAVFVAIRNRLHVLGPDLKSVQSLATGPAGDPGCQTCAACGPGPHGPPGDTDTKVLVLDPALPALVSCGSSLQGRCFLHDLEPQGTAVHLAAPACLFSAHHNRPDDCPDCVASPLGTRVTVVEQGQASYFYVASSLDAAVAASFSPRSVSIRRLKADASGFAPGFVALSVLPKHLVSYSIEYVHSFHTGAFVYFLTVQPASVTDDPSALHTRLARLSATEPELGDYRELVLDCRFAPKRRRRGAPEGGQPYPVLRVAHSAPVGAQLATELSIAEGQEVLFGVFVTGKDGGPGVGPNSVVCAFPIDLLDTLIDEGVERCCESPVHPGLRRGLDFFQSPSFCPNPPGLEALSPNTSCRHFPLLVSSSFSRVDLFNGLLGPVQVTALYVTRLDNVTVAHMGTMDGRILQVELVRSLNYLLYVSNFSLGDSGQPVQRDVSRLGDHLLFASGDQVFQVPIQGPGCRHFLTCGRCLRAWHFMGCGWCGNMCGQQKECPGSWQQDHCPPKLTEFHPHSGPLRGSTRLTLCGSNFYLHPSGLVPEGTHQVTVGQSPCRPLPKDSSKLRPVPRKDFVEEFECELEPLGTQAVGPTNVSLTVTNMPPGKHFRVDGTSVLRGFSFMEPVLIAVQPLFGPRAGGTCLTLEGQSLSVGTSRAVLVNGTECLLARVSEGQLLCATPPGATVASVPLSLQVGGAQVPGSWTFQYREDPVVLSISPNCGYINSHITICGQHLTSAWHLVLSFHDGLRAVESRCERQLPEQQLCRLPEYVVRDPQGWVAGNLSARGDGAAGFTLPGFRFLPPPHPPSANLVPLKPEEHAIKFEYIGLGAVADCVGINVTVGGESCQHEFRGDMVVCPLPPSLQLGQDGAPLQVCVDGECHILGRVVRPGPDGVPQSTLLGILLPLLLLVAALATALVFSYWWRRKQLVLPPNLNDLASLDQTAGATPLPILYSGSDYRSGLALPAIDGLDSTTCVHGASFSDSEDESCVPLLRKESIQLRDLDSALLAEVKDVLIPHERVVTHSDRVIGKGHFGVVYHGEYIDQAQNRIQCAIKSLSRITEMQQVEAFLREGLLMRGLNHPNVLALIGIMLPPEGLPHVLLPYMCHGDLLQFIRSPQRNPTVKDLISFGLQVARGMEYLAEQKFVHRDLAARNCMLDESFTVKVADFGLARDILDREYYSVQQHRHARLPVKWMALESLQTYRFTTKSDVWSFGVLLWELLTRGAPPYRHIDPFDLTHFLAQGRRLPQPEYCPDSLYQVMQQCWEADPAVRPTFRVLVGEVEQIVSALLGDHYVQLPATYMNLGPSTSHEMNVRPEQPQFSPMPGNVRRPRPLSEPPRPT
T9 sequence (P12931 whole entry): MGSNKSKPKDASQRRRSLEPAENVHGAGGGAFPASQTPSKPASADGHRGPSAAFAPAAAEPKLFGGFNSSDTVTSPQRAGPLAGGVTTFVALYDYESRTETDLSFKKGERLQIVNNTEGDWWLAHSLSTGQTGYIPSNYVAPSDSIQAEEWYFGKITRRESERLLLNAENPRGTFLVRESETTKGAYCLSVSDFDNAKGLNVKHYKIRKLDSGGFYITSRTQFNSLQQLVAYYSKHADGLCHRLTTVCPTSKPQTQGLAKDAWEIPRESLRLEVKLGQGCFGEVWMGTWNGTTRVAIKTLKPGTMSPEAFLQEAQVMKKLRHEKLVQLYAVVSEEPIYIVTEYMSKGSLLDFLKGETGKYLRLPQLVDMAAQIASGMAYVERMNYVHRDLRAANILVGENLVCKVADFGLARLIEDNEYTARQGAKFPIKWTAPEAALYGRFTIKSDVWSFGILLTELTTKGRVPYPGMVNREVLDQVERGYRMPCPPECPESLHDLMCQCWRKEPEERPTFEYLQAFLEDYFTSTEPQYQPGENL
T17 sequence (P06239 whole entry): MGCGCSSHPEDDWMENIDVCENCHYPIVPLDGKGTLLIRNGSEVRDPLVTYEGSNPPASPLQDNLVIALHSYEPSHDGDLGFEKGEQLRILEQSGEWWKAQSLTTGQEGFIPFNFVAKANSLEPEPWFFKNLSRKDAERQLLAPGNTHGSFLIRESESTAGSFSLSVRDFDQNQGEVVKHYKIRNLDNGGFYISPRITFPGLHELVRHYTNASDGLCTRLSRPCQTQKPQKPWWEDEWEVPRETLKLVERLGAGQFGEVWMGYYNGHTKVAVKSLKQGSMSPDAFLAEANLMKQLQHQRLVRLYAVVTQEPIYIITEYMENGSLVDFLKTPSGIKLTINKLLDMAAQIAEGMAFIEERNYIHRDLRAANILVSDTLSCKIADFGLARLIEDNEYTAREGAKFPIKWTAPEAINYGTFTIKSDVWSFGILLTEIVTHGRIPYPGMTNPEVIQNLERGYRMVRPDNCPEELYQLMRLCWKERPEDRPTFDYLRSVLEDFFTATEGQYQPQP

Question: How did the IC50 [1] turn out when `O=C(C1CC1)N1CCC[C@H](Nc2nccc(-n3c(-c4ccc5c(c4)OCCO5)nc4cc(O)c(O)cc43)n2)C1` [35b, (S)-Cyclopropyl(3-((4-(2-(2,3-dihydrobenzo[b][1,4]dioxin-6-yl)-5,6-dihydroxy-1H-benzo[d]imidazol-1-yl)pyrimidin-2-yl)amino)piperidin-1-yl)methanone] was run?
Answer: > 10 µM

Question: What about the inhibition at 1 µM ([1]; 1 μM, read-out: enzymatic inhibition JNK1) of the same compound?
Answer: 9%

Question: And the “selectivity over JNK1” value ([1]; JNK3 versus JNK1)?
Answer: > 1000 fold

Question: And the “activation (cleavage) of caspase-3 by amyloid-β” value [2]?
Answer: inhibited the activation of caspase-3

Question: And the “phosphorylation of c-jun induced by amyloid-β” value [3]?
Answer: inhibit phosphorylation of c-jun

Question: What about the “inhibition activity for most other kinases” value [4] of the same compound?
Answer: less than 15%

Question: What about the inhibition at 1 µM [5] of the same compound?
Answer: 20.5%

Question: And the inhibition at 1 µM [6]?
Answer: 0%

Question: What about the inhibition at 1 µM [7] of the same compound?
Answer: 25.6%

Question: What about the inhibition at 1 µM [8] of the same compound?
Answer: 0%

Question: What about the inhibition at 1 µM [9] of the same compound?
Answer: 0%

Question: What about the inhibition at 1 µM [10] of the same compound?
Answer: 2.29%

Question: What about the inhibition at 1 µM [11] of the same compound?
Answer: 0%

Question: And the inhibition at 1 µM [12]?
Answer: 19.3%

Question: What about the inhibition at 1 µM [13] of the same compound?
Answer: 0%

Question: And the inhibition at 1 µM [14]?
Answer: 0%

Question: What about the inhibition at 1 µM [15] of the same compound?
Answer: 25.9%

Question: And the inhibition at 1 µM [16]?
Answer: 8.11%

Question: What about the inhibition at 1 µM [17] of the same compound?
Answer: 18.3%

Question: What about the inhibition at 1 µM [18] of the same compound?
Answer: 13.4%

Question: What about the inhibition at 1 µM [19] of the same compound?
Answer: 10.7%

Question: And the inhibition at 1 µM [20]?
Answer: 7.63%

Question: What about the inhibition at 1 µM [21] of the same compound?
Answer: 0%

Question: And the inhibition at 1 µM [22]?
Answer: 0%

Question: And the inhibition at 1 µM [23]?
Answer: 0%

Question: And the inhibition at 1 µM [24]?
Answer: 0%

From PMC8539420, “Discovery of a Potent and Selective JNK3 Inhibitor with Neuroprotective Effect Against Amyloid β-Induced Neurotoxicity in Primary Rat Neurons” (International Journal of Molecular Sciences, 2021)
